What was measured:
Format in all cases: cell-based
NK2 = molecular target: T1, NK2 (Homo sapiens, UniProt P21452); test: Signal transduction (ST), intracellular Ca++ (FLIPR), NK2; conditions: antagonist, read-out: NK2 pIC50 (converted)
T1 sequence (P21452 1-398): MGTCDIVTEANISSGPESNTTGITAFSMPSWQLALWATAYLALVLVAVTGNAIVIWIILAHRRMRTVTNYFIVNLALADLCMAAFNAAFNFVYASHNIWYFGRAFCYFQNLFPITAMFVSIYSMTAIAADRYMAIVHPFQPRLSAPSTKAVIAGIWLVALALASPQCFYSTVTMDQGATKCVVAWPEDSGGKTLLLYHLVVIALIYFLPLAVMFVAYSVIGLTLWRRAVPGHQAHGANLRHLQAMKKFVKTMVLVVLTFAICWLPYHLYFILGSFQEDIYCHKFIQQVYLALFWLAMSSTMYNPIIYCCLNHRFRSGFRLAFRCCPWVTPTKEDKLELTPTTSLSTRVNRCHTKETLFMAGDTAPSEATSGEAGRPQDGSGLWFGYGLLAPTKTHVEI
Experimental: [The source words this procedure for another target and reports this target under the same test.] (§1) This test evaluates in vitro functional NK1 antagonistic activity. For the measurements of intracellular Ca^++ concentrations the cells were grown on 96-well (black wall/transparent bottom) plates from Costar for 2 days until they reached confluence. The cells were loaded with 2 μM Fluo3 in DMEM containing 0.1% BSA and 2.5 mM probenecid for 1 h at 37° C. They were washed 3× with a Krebs buffer (140 mM NaCl, 1 mM MgCl2×6H2O, 5 mM KCl, 10 mM glucose, 5 mM HEPES; 1.25 mM CaCl2; pH 7.4) containing 2.5 mM probenecid and 0.1% BSA (Ca^++-buffer). The cells were preincubated with a concentration range of antagonists for 20 min at RT and Ca^++-signals after addition of the agonists were measured in a Fluorescence Image Plate Reader (FLIPR from Molecular Devices, Crawley, England). The peak of the Ca^++-transient was considered as the relevant signal and the mean values of corresponding wells were analysed as described below.
(§2) The sigmoidal dose response curves were analysed by computerised curve-fitting, using the GraphPad Program. The EC50-value of a compound is the effective dose showing 50% of maximal effect. For mean curves the response to the agonist with the highest potency was normalised to 100%. For antagonist responses the IC50-value was calculated using non-linear regression.
(§3) The last columns indicate—without being limited thereto—for which action the compounds might be most suitable. Of course, since for some neurokinin receptors no data was determined, it is obvious that these compounds might be attributed to another suitable use.

NK3 = molecular target: T2, NK3 (Homo sapiens, UniProt P29371); test: Signal transduction (ST), intracellular Ca++ (FLIPR), NK3; conditions: antagonist, read-out: NK3 pIC50 (converted)
T2 sequence (P29371 1-465): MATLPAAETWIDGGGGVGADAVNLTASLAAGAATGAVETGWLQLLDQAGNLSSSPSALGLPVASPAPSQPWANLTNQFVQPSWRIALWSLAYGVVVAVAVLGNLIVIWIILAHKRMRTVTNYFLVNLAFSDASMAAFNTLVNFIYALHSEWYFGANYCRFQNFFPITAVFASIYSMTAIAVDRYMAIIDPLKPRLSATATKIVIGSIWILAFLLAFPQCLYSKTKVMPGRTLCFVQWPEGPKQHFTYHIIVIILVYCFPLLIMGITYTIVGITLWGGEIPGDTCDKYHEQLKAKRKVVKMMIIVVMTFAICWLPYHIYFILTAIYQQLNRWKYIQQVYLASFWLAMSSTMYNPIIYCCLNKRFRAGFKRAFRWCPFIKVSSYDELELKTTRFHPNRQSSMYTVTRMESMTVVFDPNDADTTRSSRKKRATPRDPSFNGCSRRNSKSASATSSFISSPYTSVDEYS
Experimental: [The source words this procedure for another target and reports this target under the same test.] as §1, §2, §3

NK1 = NK1 (Homo sapiens, UniProt P25103); test: Signal transduction (ST), intracellular Ca++ (FLIPR), functional NK1 antagonistic activity; conditions: antagonist, read-out: NK1 pIC50 (converted)
NK1, sequence (P25103 whole entry): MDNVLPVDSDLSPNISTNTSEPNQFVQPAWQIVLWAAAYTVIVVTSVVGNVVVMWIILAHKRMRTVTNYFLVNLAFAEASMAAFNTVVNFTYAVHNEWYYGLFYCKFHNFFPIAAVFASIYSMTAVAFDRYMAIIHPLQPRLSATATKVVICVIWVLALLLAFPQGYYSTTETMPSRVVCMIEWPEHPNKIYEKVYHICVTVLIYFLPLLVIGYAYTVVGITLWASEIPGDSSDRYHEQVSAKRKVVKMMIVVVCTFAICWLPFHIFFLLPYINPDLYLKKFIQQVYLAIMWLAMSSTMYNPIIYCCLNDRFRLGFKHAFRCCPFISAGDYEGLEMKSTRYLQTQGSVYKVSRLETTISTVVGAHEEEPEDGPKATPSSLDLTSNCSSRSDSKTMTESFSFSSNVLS
Experimental: as §1, §2, §3

Structure (SMILES)	IC50 (NK2) [nM]	IC50 (NK3) [nM]	IC50 (NK1) [nM]
CC(C)S(=O)(=O)N1CCC2(CCN([C@H]3CCN(C(=O)c4cc(C(F)(F)F)cc(C(F)(F)F)c4)[C@H](Cc4ccccc4)C3)CC2)CC1 [Compound 167]	2040	1950	56.2
O=C(c1cc(C(F)(F)F)cc(C(F)(F)F)c1)N1CC[C@H](N2CCC3(CC2)CCN(S(=O)(=O)c2ccc(Cl)c(Cl)c2)CC3)C[C@H]1Cc1ccccc1 [Compound 113]	> 10000	> 10000	427
O=C(c1cnccn1)N1CCC2(CC1)CCN([C@H]1CCN(C(=O)c3cc(C(F)(F)F)cc(C(F)(F)F)c3)[C@H](Cc3ccccc3)C1)CC2 [Compound 52]	2880	> 10000	60.3
Cc1noc(C)c1CN1CCC2(CCN([C@@H]3CCN(C(=O)c4cc(C(F)(F)F)cc(C(F)(F)F)c4)[C@H](Cc4ccccc4)C3)CC2)CC1=O [Compound 201]	2820	~10000	219
Cc1ccc(OCC(=O)N2CCC3(CC2)CCN([C@H]2CCN(C(=O)c4cc(C(F)(F)F)cc(C(F)(F)F)c4)[C@H](Cc4ccccc4)C2)CC3)c(C)c1 [Compound 74]	> 10000	> 10000	389
O=C(c1cc(C(F)(F)F)cc(C(F)(F)F)c1)N1CC[C@H](N2CCC3(CC2)CCN(S(=O)(=O)c2ccc(Cl)s2)CC3)C[C@H]1Cc1ccccc1 [Compound 94]	> 10000	575	132
O=C(c1cc(C(F)(F)F)cc(C(F)(F)F)c1)N1CC[C@H](N2CCC3(CC2)CCN(S(=O)(=O)c2cc(Br)c(Br)s2)CC3)C[C@H]1Cc1ccccc1 [Compound 98]	> 10000	> 10000	977
CC(C)(C)C1CCC(C(=O)N2CCC3(CC2)CCN([C@H]2CCN(C(=O)c4cc(C(F)(F)F)cc(C(F)(F)F)c4)[C@H](Cc4ccccc4)C2)CC3)CC1 (stereo partly shown) [Compound 40]	> 10000	> 10000	977
O=C(C1CC1)N1CCCC2(CCN([C@@H]3CCN(C(=O)c4cc(C(F)(F)F)cc(C(F)(F)F)c4)[C@H](Cc4ccccc4)C3)CC2)C1 [Compound 173]	~1620	> 10000	30.9
O=C(CN1CCOC1=O)N1CCC2(CC1)CCN([C@H]1CCN(C(=O)c3cc(C(F)(F)F)cc(C(F)(F)F)c3)[C@H](Cc3ccccc3)C1)CC2 [Compound 79]	> 10000	> 10000	170
O=C(Cc1ccc2c(c1)OCO2)N1CCC2(CC1)CCN([C@H]1CCN(C(=O)c3cc(C(F)(F)F)cc(C(F)(F)F)c3)[C@H](Cc3ccccc3)C1)CC2 [Compound 81]	5250	> 10000	115
Cc1ccc(C(=O)N2CCC3(CC2)CCN([C@H]2CCN(C(=O)c4cc(C(F)(F)F)cc(C(F)(F)F)c4)[C@H](Cc4ccccc4)C2)CC3)s1 [Compound 30]	7940	> 10000	692
N#Cc1ccc(C(=O)N2CCC3(CC2)CCN([C@H]2CCN(C(=O)c4cc(C(F)(F)F)cc(C(F)(F)F)c4)[C@H](Cc4ccccc4)C2)CC3)cc1 [Compound 43]	3630	> 10000	105
O=C(c1cc(C(F)(F)F)cc(C(F)(F)F)c1)N1CC[C@H](N2CCC3(CC2)CCN(S(=O)(=O)c2cc(Cl)sc2Cl)CC3)C[C@H]1Cc1ccccc1 [Compound 97]	–	~10000	87.1
N#Cc1ccccc1S(=O)(=O)N1CCC2(CCN([C@H]3CCN(C(=O)c4cc(C(F)(F)F)cc(C(F)(F)F)c4)[C@H](Cc4ccccc4)C3)CC2)CC1 [Compound 118]	–	1510	30.9

Results, then the compound that gave them:

IC50 (NK2) [nM]	IC50 (NK3) [nM]	IC50 (NK1) [nM]	Structure (SMILES)
7760	7410	17	Cc1nnsc1C(=O)N1CCC2(CCN(C[C@H]3CCN(C(=O)c4cc(C(F)(F)F)cc(C(F)(F)F)c4)[C@H](Cc4ccccc4)C3)CC2)CC1 [Compound 183]
1700	912	9.55	O=C(C1CCOC1)N1CCC2(CC1)CCN([C@H]1CCN(C(=O)c3cc(C(F)(F)F)cc(C(F)(F)F)c3)[C@H](Cc3ccc(Cl)c(Cl)c3)C1)CC2 (stereo partly shown) [Compound 132]
8320	> 10000	14.8	O=C(C1CCOC1)N1CCC2(CCN(C[C@H]3CCN(C(=O)c4cc(C(F)(F)F)cc(C(F)(F)F)c4)[C@H](Cc4ccccc4)C3)CC2)CC1 (stereo partly shown) [Compound 180]
3980	> 10000	83.2	Cc1ccoc1C(=O)N1CCC2(CC1)CCN([C@H]1CCN(C(=O)c3cc(C(F)(F)F)cc(C(F)(F)F)c3)[C@H](Cc3ccccc3)C1)CC2 [Compound 25]
3550	3800	631	O=C(c1ccoc1)N1CCCC2(CCCN(C3CCN(C(=O)c4cc(C(F)(F)F)cc(C(F)(F)F)c4)C(Cc4ccccc4)C3)C2)C1 (stereo not shown) [Compound 212]
2510	> 10000	148	O=C(c1cc(C(F)(F)F)cc(C(F)(F)F)c1)N1CC[C@H](N2CCC3(CCN(C(=O)C4(c5ccccc5)CC4)CC3)CC2)C[C@H]1Cc1ccccc1 [Compound 89]
> 10000	> 10000	200	Cn1cccc1C(=O)N1CCC2(CC1)CCN([C@H]1CCN(C(=O)c3cc(C(F)(F)F)cc(C(F)(F)F)c3)[C@H](Cc3ccccc3)C1)CC2 [Compound 33]
6170	> 10000	191	Cn1cnc(C(=O)N2CCC3(CC2)CCN([C@H]2CCN(C(=O)c4cc(C(F)(F)F)cc(C(F)(F)F)c4)[C@H](Cc4ccccc4)C2)CC3)c1 [Compound 34]
> 10000	–	145	Cc1cc(C)cc(C(=O)N2CCC(N3CCC4(CCN(C(=O)C5CC5)CC4)CC3)CC2Cc2ccccc2)c1 (stereo not shown) [Compound 153]
5370	> 10000	355	O=C(c1cc(C(F)(F)F)cc(C(F)(F)F)c1)N1CC[C@H](N2CCC3(CCN(C(=O)C4(c5ccccc5)CCCC4)CC3)CC2)C[C@H]1Cc1ccccc1 [Compound 90]
6460	–	158	O=C(C1CC1)N1CCC2(CC1)CCN(C1CCN(C(=O)c3cc(Cl)cc(Cl)c3)C(Cc3ccccc3)C1)CC2 (stereo not shown) [Compound 155]
1100	501	25.7	O=C(c1cc(C(F)(F)F)cc(C(F)(F)F)c1)N1CC[C@H](N2CCC3(CC2)CCN(S(=O)(=O)c2ccsc2)CC3)C[C@H]1Cc1ccccc1 [Compound 93]
> 10000	> 10000	263	CC12CCC(C(=O)N3CCC4(CC3)CCN([C@H]3CCN(C(=O)c5cc(C(F)(F)F)cc(C(F)(F)F)c5)[C@H](Cc5ccccc5)C3)CC4)(OC1=O)C2(C)C (stereo partly shown) [Compound 61]
3980	> 10000	44.7	COc1ccc(S(=O)(=O)N2CCC3(CCN([C@H]4CCN(C(=O)c5cc(C(F)(F)F)cc(C(F)(F)F)c5)[C@H](Cc5ccccc5)C4)CC3)CC2)cc1OC [Compound 122]
–	5130	174	O=C(c1cc(C(F)(F)F)cc(C(F)(F)F)c1)N1CC[C@H](N2CCC3(CC2)CCN(S(=O)(=O)c2cc(Cl)ccc2Cl)CC3)C[C@H]1Cc1ccccc1 [Compound 110]
> 10000	–	31.6	NC(=O)C1(C(=O)N2CCC3(CC2)CCN([C@H]2CCN(C(=O)c4cc(C(F)(F)F)cc(C(F)(F)F)c4)[C@H](Cc4ccccc4)C2)CC3)CC1 [Compound 14]
5370	–	105	CC1(C(=O)N2CCC3(CC2)CCN([C@H]2CCN(C(=O)c4cc(C(F)(F)F)cc(C(F)(F)F)c4)[C@H](Cc4ccccc4)C2)CC3)CC1 [Compound 11]
–	525	60.3	O=C(c1cc(C(F)(F)F)cc(C(F)(F)F)c1)N1CC[C@H](N2CCC3(CC2)CCN(S(=O)(=O)c2ccccc2Cl)CC3)C[C@H]1Cc1ccccc1 [Compound 106]

Reference: patent US7544694B2, “Substituted diaza-spiro-[5.5]-undecane derivatives and their use as neurokinin antagonists” (Janssen Pharmaceutica N.V., priority 2004, dated 2009)
